Here are results for 8 molecules from PMC10892019, “Molecular Characterization of Plant Volatile Compound Interactions with Cnaphalocrocis medinalis Odorant-Binding Proteins” (Plants, 2024).

Read-outs that look alike come from different tables or passages of the source.

One test deals with SaveOBP9. The arrangement: method as in PMID 33172024. Conditions: SaveOBP9, strong binding force; cited from earlier work.
A further test has as its target CmedOBP15 (Cnaphalocrocis medinalis, UniProt A0A0U3C6L3). In words: Fluorescence competitive binding assay (1-NPN) with CmedOBP15. How it is done: (§1) The method for fluorescence competition binding was the same as that described by Zeng et al. (2018). The fluorescent probe N-phenyl-1-naphthylamine (1-NPN) (Sangon Biotech, Shanghai, China) and phenylacetaldehyde, benzyl acetate, 1-heptanol, and hexanal (Aladdin, Shanghai, China) were diluted to 100 mM stocks in chromatographic-grade methanol and stored at −20 °C. Working solutions of 1 mM 1-NPN and each odorant were made up in methanol. Each CmedOBP solution was diluted in 1 mM Tris-HCl buffer to a final concentration of 2 μM.
(§2) The RF5301PC fluorescence spectrophotometer (Shimadzu, Japan) was operated at an excitation wavelength of 337 nm and an emission wavelength of 405 nm (with excitation and emission slits of 5 nm and 10 nm, respectively). For each protein solution, 2 mL of diluted protein was added to the quartz cuvette, then 4 μL aliquots of 1-NPN solution were added at 2 min intervals to bring the final concentration of the probe to 2 μM. After the fluorescence intensity was stable, the maximum fluorescence value was recorded. The 1 mM volatile samples dissolved in methanol were then added to a final concentration of 20 μM. After 2 min, when the fluorescence value no longer fluctuated, the maximum fluorescence value was recorded. Each odor sample was tested in three technical replicates.
(§3) The binding ability of each protein to each odorant was determined by plotting the fluorescence intensity against the ligand concentration. Trend lines were linearized with the Scatchard method, then used to calculate the half-maximal inhibition concentration (IC50) of the ligand. The competition constant was calculated from the IC50 value as follows: Ki = [IC50]/(1 + [1-NPN]/K1-NPN) where 1-NPN is the concentration of free 1-NPN, and K1-NPN is the dissociation constant of the CmedOBP/[1-NPN] complex. The dissociation constant (Ki) was inversely correlated with the binding force between the protein and the odorant. At Ki > 50 μmol/L, the protein was considered to have no binding force with the volatile; at 20 μmol/L < Ki < 50 μmol/L, the protein was considered to have a weak binding force with the volatile; and at 0 μmol/L < Ki < 20 μmol/L, the protein was considered to have a strong binding force with the analyzed volatile.

The target of the next test is CmedPBP2 (Cnaphalocrocis medinalis, UniProt M4YHW5). In words: Fluorescence competitive binding assay (1-NPN) with CmedPBP2. The method, then: as §1, §2, §3
Chain of CmedPBP2 (M4YHW5 entry or part of it): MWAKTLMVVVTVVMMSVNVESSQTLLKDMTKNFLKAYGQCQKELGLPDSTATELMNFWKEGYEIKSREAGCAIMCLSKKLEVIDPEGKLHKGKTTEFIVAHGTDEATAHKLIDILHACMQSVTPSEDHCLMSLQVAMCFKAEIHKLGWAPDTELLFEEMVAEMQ
Another test addresses CmedGOBP1 (Cnaphalocrocis medinalis, UniProt H9XFD0). Briefly: Fluorescence competitive binding assay (1-NPN) with CmedGOBP1. How it is done:
as §1, §2, §3

Another test has as its target CmedOBP6 (Cnaphalocrocis medinalis, UniProt A0A0U3C2E7). In words: Fluorescence competitive binding assay (1-NPN) with CmedOBP6. How it is done: as §1, §2, §3
The next test deals with CmedOBP1 (Cnaphalocrocis medinalis, UniProt H9XFD2). Briefly: Fluorescence competitive binding assay (1-NPN) with CmedOBP1. The method, then:
as §1, §2, §3

The next test addresses CmedGOBP2 (Cnaphalocrocis medinalis, UniProt H9XFD1). Briefly: Fluorescence competitive binding assay (1-NPN) with CmedGOBP2. How it is done:
as §1, §2, §3

In the next test the target is CmedOBP26 (Cnaphalocrocis medinalis, UniProt A0A1P8SKA7). Briefly: Fluorescence competitive binding assay (1-NPN) with CmedOBP26. The method, then:
as §1, §2, §3

Where [1] appears, read: CmedOBP15 2 μM, 1-NPN probe 2 μM, calculated from IC50, read-out: Ki.
The mark [2] stands for this setting: CmedOBP15 2 μM, 1-NPN probe 2 μM, read-out: IC50.
[3] abbreviates: CmedPBP2 2 μM, 1-NPN probe 2 μM, calculated from IC50, read-out: Ki.
The mark [4] stands for this setting: CmedPBP2 2 μM, 1-NPN probe 2 μM, read-out: IC50.
Where [5] appears, read: CmedGOBP1 2 μM, 1-NPN probe 2 μM, calculated from IC50, read-out: Ki.
Where [6] appears, read: CmedGOBP1 2 μM, 1-NPN probe 2 μM, read-out: IC50.
The mark [7] stands for this setting: CmedOBP6 2 μM, 1-NPN probe 2 μM, calculated from IC50, read-out: Ki.
[8] abbreviates: CmedOBP6 2 μM, 1-NPN probe 2 μM, read-out: IC50.
[9] abbreviates: CmedOBP1 2 μM, 1-NPN probe 2 μM, calculated from IC50, read-out: Ki.
Setting [10] is: CmedOBP1 2 μM, 1-NPN probe 2 μM, read-out: IC50.
The mark [11] stands for this setting: CmedGOBP2 2 μM, 1-NPN probe 2 μM, calculated from IC50, read-out: Ki.
[12] abbreviates: CmedGOBP2 2 μM, 1-NPN probe 2 μM, read-out: IC50.
The mark [13] stands for this setting: CmedOBP26 2 μM, 1-NPN probe 2 μM, calculated from IC50, read-out: Ki.
Setting [14] is: CmedOBP26 2 μM, 1-NPN probe 2 μM, read-out: IC50.
Setting [15] is: Ki, CmedOBP15 2 μM, 1-NPN probe 2 μM, calculated from IC50.
The mark [16] stands for this setting: Ki, CmedOBP1 2 μM, 1-NPN probe 2 μM, calculated from IC50.

Chain of CmedGOBP2 (H9XFD1 entry or part of it): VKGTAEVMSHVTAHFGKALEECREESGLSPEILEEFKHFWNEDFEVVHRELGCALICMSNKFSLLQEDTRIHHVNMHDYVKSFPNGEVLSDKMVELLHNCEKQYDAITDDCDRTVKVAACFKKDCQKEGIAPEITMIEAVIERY
Chain of CmedOBP6 (A0A0U3C2E7 entry or part of it): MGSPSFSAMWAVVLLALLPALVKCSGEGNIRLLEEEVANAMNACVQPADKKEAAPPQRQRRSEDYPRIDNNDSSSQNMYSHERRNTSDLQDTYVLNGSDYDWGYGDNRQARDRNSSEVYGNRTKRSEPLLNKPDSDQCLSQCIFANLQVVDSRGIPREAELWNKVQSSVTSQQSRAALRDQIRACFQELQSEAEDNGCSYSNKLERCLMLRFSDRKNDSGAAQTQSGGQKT
Chain of CmedGOBP1 (H9XFD0 entry or part of it): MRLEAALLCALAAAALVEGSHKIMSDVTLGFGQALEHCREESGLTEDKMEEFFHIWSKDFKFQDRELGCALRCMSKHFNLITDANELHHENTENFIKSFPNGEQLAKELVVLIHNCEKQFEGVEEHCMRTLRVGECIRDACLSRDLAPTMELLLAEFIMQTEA
Chain of CmedOBP1 (H9XFD2 entry or part of it): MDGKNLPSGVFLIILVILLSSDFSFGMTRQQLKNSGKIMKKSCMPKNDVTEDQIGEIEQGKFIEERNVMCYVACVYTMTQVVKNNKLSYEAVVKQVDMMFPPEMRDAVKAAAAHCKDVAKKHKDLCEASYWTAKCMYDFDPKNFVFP
Chain of CmedOBP26 (A0A1P8SKA7 entry or part of it): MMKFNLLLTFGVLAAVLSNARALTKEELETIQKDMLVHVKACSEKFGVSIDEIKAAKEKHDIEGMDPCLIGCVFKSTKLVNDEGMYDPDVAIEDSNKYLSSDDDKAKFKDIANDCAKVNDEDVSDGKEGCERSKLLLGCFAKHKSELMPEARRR
Chain of CmedOBP15 (A0A0U3C6L3 entry or part of it): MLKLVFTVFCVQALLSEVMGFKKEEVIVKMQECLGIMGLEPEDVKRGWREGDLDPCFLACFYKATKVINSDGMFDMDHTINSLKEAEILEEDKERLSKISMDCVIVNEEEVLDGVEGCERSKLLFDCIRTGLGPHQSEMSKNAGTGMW

As to `CCCCCCCC=O` [octanal], on SaveOBP9, the Ki is less than 10 µM.

Regarding `CCCCCCCO` [1-Heptanol, 1-heptanol], the Ki on CmedOBP15 (setting [1]) was greater than 50 µM; on CmedPBP2 (setting [3]), greater than 50 µM; on CmedGOBP1 (setting [5]), greater than 50 µM; at CmedOBP6 (setting [7]) it was greater than 50 µM; at CmedOBP1 (setting [9]), 12 µM; at CmedOBP1 (CmedOBP1, read-out: Ki value) it was less than 20 µM. The Ki on CmedGOBP2 (setting [11]) was greater than 50 µM; at CmedOBP26 (setting [13]) it was 31.9 µM; at CmedOBP26 (CmedOBP26, read-out: Ki value) it was 20 to 50 µM. Moreover, the concentration for half-maximal inhibition (IC50) at CmedOBP15 (setting [2]) turned out to be 290 µM; on CmedPBP2 (setting [4]) it was 224 µM; at CmedGOBP1 (setting [6]), 219 µM; at CmedOBP6 (setting [8]), 624 µM; at CmedOBP1 (setting [10]), 68.1 µM; at CmedGOBP2 (setting [12]) it was 99.7 µM. The IC50 at CmedOBP26 (setting [14]) was 52.3 µM.

As to `CCCCCCCCCCCCCC` [tetradecane], the inhibition constant Ki at SaveOBP9 is less than 10 µM.

Turning to `CCCCCCCCCCCCCCCC` [hexadecane], on SaveOBP9, the Ki was less than 10 µM.

On to `O=CCc1ccccc1` [Phenylacetaldehyde, phenylacetaldehyde], for which the half-inhibitory concentration (IC50) on CmedOBP15 was found to be 44.3 µM; on CmedPBP2 it was 85.8 µM; at CmedGOBP1 it was 162 µM; on CmedOBP6, 357 µM; at CmedOBP1 it was 77.5 µM; at CmedGOBP2, 123 µM. In addition, the half-inhibitory concentration (IC50) on CmedOBP26 was found to be 458 µM. Moreover, the inhibitory constant (Ki) at CmedOBP15 (Ki value, CmedOBP15) was less than 20 µM; at CmedOBP15 (setting [15]), 17.5 µM; on CmedPBP2, greater than 50 µM; on CmedGOBP1, greater than 50 µM; on CmedOBP6, greater than 50 µM; on CmedOBP1 (Ki value, CmedOBP1), less than 20 µM. Besides, the values for the inhibition constant Ki on CmedOBP1 (setting [16]), on CmedGOBP2 and on CmedOBP26 were 13.7 µM, greater than 50 µM and greater than 50 µM, respectively.

`CCCCCC=O` [Hexanal, hexanal]: the IC50 at CmedOBP15 turned out to be 441 µM; on CmedPBP2, 155 µM; at CmedGOBP1 it was 249 µM; on CmedOBP6, 383 µM; at CmedOBP1, 99.2 µM; at CmedGOBP2 it was 622 µM. At CmedOBP26, this molecule displayed a 50% inhibitory concentration (IC50) of 200 µM. The Ki at CmedOBP15 (setting [15]) is greater than 50 µM; at CmedPBP2 it was greater than 50 µM; at CmedGOBP1, greater than 50 µM; on CmedOBP6 it was greater than 50 µM; on CmedOBP1 (Ki value, CmedOBP1), less than 20 µM; at CmedOBP1 (setting [16]), 17.5 µM. The inhibition constant Ki on CmedGOBP2 and at CmedOBP26 was greater than 50 µM each time.

For `CC(=O)OCc1ccccc1` [Benzyl Acetate, benzyl acetate], the Ki was 13.6 µM on CmedOBP15 (setting [1]); less than 20 µM on CmedOBP15 (CmedOBP15, read-out: Ki value); greater than 50 µM at CmedPBP2 (setting [3]); greater than 50 µM at CmedGOBP1 (setting [5]); greater than 50 µM on CmedOBP6 (setting [7]); 31.5 µM at CmedOBP1 (setting [9]). Moreover, the Ki at CmedGOBP2 (setting [11]) and at CmedOBP26 (setting [13]) was greater than 50 µM each time. Moreover, the IC50 on CmedOBP15 (setting [2]) was 34.4 µM; at CmedPBP2 (setting [4]), 235 µM; on CmedGOBP1 (setting [6]), 223 µM; on CmedOBP6 (setting [8]) it was 558 µM; at CmedOBP1 (setting [10]) it was 179 µM; on CmedGOBP2 (setting [12]) it was 454 µM. Besides, the concentration for half-maximal inhibition (IC50) at CmedOBP26 (setting [14]) is 96.1 µM.

As for `CCCCCCCCCC=O` [decanal], the Ki at SaveOBP9 is less than 10 µM.
